*1 amine or outer side, *2 acyl side, *3 side chain or, on linkers, in order; H or OH if unused. Where a SMILES comes first, the peptide text is derived from it. Bridges are numbered along the chain shown (N, C = ends). [ ]: non-standard residue; d: D form. The star is where a group is joined. hPhe(3-Cl-4-CF3) = N[C@@H](CCc1ccc(C(F)(F)F)c(Cl)c1)C(=O)O; X34 = COCCN([C@@H](Cc1ccc(C(F)(F)F)cc1)C(=O)[*:2])[*:1]; NPrPhe(4-CF3) = CCCN[C@@H](Cc1ccc(C(F)(F)F)cc1)C(=O)O; NMeGly(cPent) = CN[C@H](C(=O)O)C1CCCC1; NMeD = CN[C@@H](CC(=O)O)C(=O)O; NMeL = CN[C@@H](CC(C)C)C(=O)O; Morpholide = C1CN(*)CCO1; NMeA = CN[C@@H](C)C(=O)O; Ac5c = NC1(C(=O)O)CCCC1; Aze = O=C(O)[C@@H]1CCN1; Sar = CNCC(=O)O
Legend:
[1] = target: GDP-bound NRAS wild-type protein (Homo sapiens, UniProt P01111); test: Binding to NRAS by surface plasmon resonance (SPR), KD and KD ratio to KRAS
Chain of GDP-bound NRAS wild-type protein (P01111 whole entry): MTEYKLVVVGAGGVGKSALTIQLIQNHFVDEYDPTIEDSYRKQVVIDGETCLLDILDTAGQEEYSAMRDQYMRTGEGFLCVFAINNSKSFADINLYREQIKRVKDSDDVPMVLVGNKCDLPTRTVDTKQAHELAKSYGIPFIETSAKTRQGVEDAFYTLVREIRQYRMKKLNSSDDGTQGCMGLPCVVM
Procedure, shortened: (§1)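 Recombinant RAS proteins bearing a biotinylated Avi tag and loaded with GDP served as the captured ligand, recaptured fresh every cycle. Binding responses were referenced to an uncoated surface and a buffer-only blank cycle. Dissociation constants were obtained by 1:1 model fitting at 30°C.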

[2] = system: human lung cancer strain NCI-H441; format: cell-based
Procedure, shortened: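 Signal came from […] measured per well once the reagent was added. Beforehand, cells were cultured at 37°C and 5% carbon dioxide on a compound series serially diluted in dimethyl sulfoxide.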

HRAS wild-type protein = HRAS wild-type protein (Homo sapiens, UniProt P01112); test: Binding to HRAS by surface plasmon resonance (SPR), KD and KD ratio to KRAS
Chain of HRAS wild-type protein (P01112 whole entry): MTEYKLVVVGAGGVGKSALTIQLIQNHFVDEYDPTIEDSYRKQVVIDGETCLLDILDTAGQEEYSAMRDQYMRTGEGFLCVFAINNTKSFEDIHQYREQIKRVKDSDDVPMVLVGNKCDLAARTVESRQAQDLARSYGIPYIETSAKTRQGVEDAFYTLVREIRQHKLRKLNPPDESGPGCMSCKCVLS
Procedure, shortened: as §1

[3] = ratio of KD for GDP-bound NRAS wild-type protein to KD for KRAS
[4] = ratio of KD for HRAS wild-type protein to KD for KRAS
[5] = ratio of the KD value with respect to GDP-bound NRAS wild-type protein to the KD value with respect to KRAS
[6] = ratio of the KD value with respect to HRAS wild-type protein to the KD value with respect to KRAS

IC50 [2] [nM] | SMILES | NRAS /KRAS [1, 3] | HRAS /KRAS (HRAS wild-type protein; [4]) | NRAS /KRAS [1, 5] | HRAS /KRAS (HRAS wild-type protein; [6]) | NRAS /KRAS ([1]; ratio of KD with respect to GDP-bound NRAS wild-type protein to KD with respect to KRAS) | HRAS /KRAS (HRAS wild-type protein; ratio of KD with respect to HRAS wild-type protein to KD with respect to KRAS)
81.6 | CCC(CC)[C@H]1C(=O)N(C)[C@H](C(=O)N(C)C)CC(=O)N(C)[C@@H](COC)C(=O)N[C@@H]([C@@H](C)CC)C(=O)N(C)CC(=O)N(C)[C@H]2C/C=C\CCN(C2=O)[C@@H](Cc2ccc(C(F)(F)F)cc2)C(=O)N(C)CC(=O)N[C@@H](CCc2ccc(Cl)c(Cl)c2)C(=O)N2CCCCC[C@H]2C(=O)NC2(CC(C)(C)C2)C(=O)N1C [PP2972] | AA (a compound having 20 or more is denoted as AA) | A (a compound having 10 or more and less than 20 is denoted as A) | – | – | – | –
255 | CCCCO[C@@H]1C[C@H]2C(=O)NC3(CCC3)C(=O)N(C)[C@@H](C3CCCC3)C(=O)N(C)[C@H](C(=O)N3CCOCC3)CC(=O)N(C)[C@@H](CC(C)C)C(=O)N[C@@H]([C@@H](C)CC)C(=O)N(C)CC(=O)N(C)[C@H]3CCCCCN(C3=O)[C@@H](Cc3ccc(C(F)(F)F)cc3)C(=O)N(C)CC(=O)N[C@@H](CCc3cc(F)c(C(F)(F)F)c(F)c3)C(=O)N2C1 [PP1004] | B (a compound having 3 or more and less than 10 is denoted as B) | B (a compound having 3 or more and less than 10 is denoted as B) | – | – | – | –
29 | CCO[C@@H]1C[C@H]2C(=O)NC3(CC(C)(C)C3)C(=O)N(C)[C@@H](C(CC)CC)C(=O)N(C)[C@H](C(=O)N3CCCC3)CC(=O)N(C)[C@@H](COC)C(=O)N[C@@H]([C@@H](C)CC)C(=O)N(C)CC(=O)N(C)[C@H]3C/C=C\CCN(C3=O)[C@@H](Cc3ccc(C)cc3)C(=O)N(C)CC(=O)N[C@@H](CCc3ccc(C(F)(F)F)c(Cl)c3)C(=O)N2C1 [PP2144] | – | – | AA (a compound having 20 or more is denoted as AA) | A (a compound having 10 or more and less than 20 is denoted as A) | – | –
10.3 | CC[C@H](C)[C@@H]1NC(=O)[C@H](C)N(C)C(=O)C[C@@H](C(=O)N(C)C)N(C)C(=O)[C@H](C2CCCC2)N(C)C(=O)C2(CCCC2)NC(=O)[C@@H]2CC(F)(F)CN2C(=O)[C@H](CCc2cc(F)c(C(F)(F)F)c(F)c2)NC(=O)CN(C)C(=O)[C@H](Cc2ccc(C(F)(F)F)cc2)N2CCCC[C@@H](C2=O)N(C)C(=O)CN(C)C1=O [PP0583] | – | – | C (A compound having a KD ratio of 0.1 or more and less than 3 is denoted as C) | C (A compound having a KD ratio of 0.1 or more and less than 3 is denoted as C) | – | –
4.4 | CCCN1C(=O)[C@@H]2CCN2C(=O)[C@H](C)N(C)C(=O)[C@H]([C@@H](C)CC)NC(=O)[C@H](CC(C)C)N(C)C(=O)C[C@@H](C(=O)N(C)C)NC(=O)[C@H](C2CCCC2)N(C)C(=O)C2(CCCC2)NC(=O)[C@@H]2CCCN2C(=O)[C@H](CCc2ccc(C(F)(F)F)c(Cl)c2)NC(=O)CN(C)C(=O)[C@@H]1Cc1ccc(C(F)(F)F)cc1 [PP0379] ([NMeL]I[NMeA][Aze][NPrPhe(4-CF3)][Sar][hPhe(3-Cl-4-CF3)]P[Ac5c][NMeGly(cPent)]D-NMe2; lactam N-11) | C (A compound having a KD ratio of 0.1 or more and less than 3 is denoted as C) | B (a compound having 3 or more and less than 10 is denoted as B) | – | – | – | –
16.9 | CCO[C@@H]1C[C@H]2C(=O)NC3(CC(C)(C)C3)C(=O)N(C)[C@@H](C(CC)CC)C(=O)N(C)[C@H](C(=O)N(C)C)CC(=O)N(C)[C@@H](CC(C)C)C(=O)N[C@@H]([C@@H](C)CC)C(=O)N(C)CC(=O)N(C)[C@H]3C/C=C\CCN(C3=O)[C@@H](Cc3ccc(C)cc3)C(=O)N(C)CC(=O)N[C@@H](CCc3ccc(C(F)(F)F)c(OC)c3)C(=O)N2C1 [PP2168] | – | – | A (a compound having 10 or more and less than 20 is denoted as A) | A (a compound having 10 or more and less than 20 is denoted as A) | – | –

Second part, the compound before the results:

SMILES | IC50 [2] [nM] | NRAS /KRAS [1, 3] | HRAS /KRAS (HRAS wild-type protein; [4]) | NRAS /KRAS [1, 5] | HRAS /KRAS (HRAS wild-type protein; [6]) | NRAS /KRAS ([1]; ratio of KD with respect to GDP-bound NRAS wild-type protein to KD with respect to KRAS) | HRAS /KRAS (HRAS wild-type protein; ratio of KD with respect to HRAS wild-type protein to KD with respect to KRAS)
CCO[C@@H]1C[C@H]2C(=O)NC3(CCC3)C(=O)N(C)[C@@H](C3CCCC3)C(=O)N(CCc3ccccc3)[C@H](C(=O)N(C)C)CC(=O)N(C)[C@@H](CC)C(=O)N[C@@H]([C@@H](C)CC)C(=O)N(C)CC(=O)N(C)[C@H]3CCCCCN(C3=O)[C@@H](Cc3ccc(C(F)(F)F)cc3)C(=O)N(C)CC(=O)N[C@@H](CCc3cc(F)c(C(F)(F)F)c(F)c3)C(=O)N2C1 [PP0637] | 952 | – | – | B (a compound having 3 or more and less than 10 is denoted as B) | B (a compound having 3 or more and less than 10 is denoted as B) | – | –
CCO[C@@H]1C[C@H]2C(=O)NC3(CC(C)(C)C3)C(=O)N(C)[C@@H](C(CC)CC)C(=O)N(C)[C@H](C(=O)N(C)C)CC(=O)N(C)[C@@H](CC)C(=O)N[C@@H]([C@@H](C)CC)C(=O)N(C)CC(=O)N(C)[C@H]3C/C=C\CCN(C3=O)[C@@H](Cc3ccc(C(F)(F)F)cc3)C(=O)N(C)CC(=O)N[C@@H](CCc3ccc(C(F)(F)F)c(OC)c3)C(=O)N2C1 [PP2066] | 3.2 | – | – | A (a compound having 10 or more and less than 20 is denoted as A) | B (a compound having 3 or more and less than 10 is denoted as B) | – | –
CCCC[C@H]1C(=O)N[C@@H]([C@@H](C)CC)C(=O)N(C)CC(=O)N(C)[C@H]2C/C=C\CCN(C2=O)[C@@H](Cc2ccc(C)cc2)C(=O)N(C)CC(=O)N[C@@H](CCc2cc(F)c(C(F)(F)F)c(F)c2)C(=O)N2C[C@H](OCC)C[C@H]2C(=O)NC2(CC(C)(C)C2)C(=O)N(C)[C@@H](C2CCCC2)C(=O)N(C)[C@H](C(=O)N(C)CC)CC(=O)N1C [PP2808] | 13.1 | B (a compound having 3 or more and less than 10 is denoted as B) | B (a compound having 3 or more and less than 10 is denoted as B) | – | – | – | –
CC[C@H](C)[C@@H]1NC(=O)[C@H](CC(C)C)N(C)C(=O)C[C@@H](C(=O)N2CCOCC2)N(C)C(=O)[C@H](C2CCCC2)N(C)C(=O)C2(CCCC2)NC(=O)[C@@H]2CCCN2C(=O)[C@H](CCc2ccc(C(F)(F)F)c(Cl)c2)NC(=O)CN(C)C(=O)[C@H](Cc2ccc(C(F)(F)F)cc2)N(CCOC)C(=O)[C@@H]2CCN2C(=O)[C@H](C)N(C)C1=O [PP0118] ([NMeL]I[NMeA][Aze][X34][Sar][hPhe(3-Cl-4-CF3)]P[Ac5c][NMeGly(cPent)][NMeD]-Morpholide; lactam N-11) | 6 | C (A compound having a KD ratio of 0.1 or more and less than 3 is denoted as C) | C (A compound having a KD ratio of 0.1 or more and less than 3 is denoted as C) | – | – | – | –
CC[C@H](C)[C@@H]1NC(=O)[C@H](CC)N(C)C(=O)C[C@@H](C(=O)N(C)C)N(CC)C(=O)[C@H](C2CCCC2)N(C)C(=O)C2(CCC2)NC(=O)[C@@H]2CCCN2C(=O)[C@H](CCc2cc(F)c(C(F)(F)F)c(F)c2)NC(=O)CN(C)C(=O)[C@H](Cc2ccc(C(F)(F)F)cc2)N2CC/C=C\C[C@@H](C2=O)N(C)C(=O)CN(C)C1=O [PP1106] | 155 | A (a compound having 10 or more and less than 20 is denoted as A) | A (a compound having 10 or more and less than 20 is denoted as A) | – | – | – | –
CCO[C@@H]1C[C@H]2C(=O)NC3(CC(C)(C)C3)C(=O)N(C)[C@@H](C(CC)CC)C(=O)N(C)[C@H](C(=O)N(C)C)CC(=O)N(C)[C@H]3CCCCCc4ccc(cc4)C[C@@H](C(=O)N(C)CC(=O)N[C@@H](CCc4ccc(C(F)(F)F)c(OC)c4)C(=O)N2C1)N1CC/C=C\C[C@@H](C1=O)N(C)C(=O)CN(C)C(=O)[C@H]([C@@H](C)CC)NC3=O [PP3035] | 4.2 | AA (a compound having 20 or more is denoted as AA) | A (a compound having 10 or more and less than 20 is denoted as A) | – | – | – | –
CCOC[C@H]1C(=O)N[C@@H]([C@@H](C)CC)C(=O)N(C)CC(=O)N(C)[C@H]2C/C=C\CCN(C2=O)[C@@H](Cc2ccc(C(F)(F)F)cc2)C(=O)N(C)CC(=O)N[C@@H](CCc2ccc(C(F)(F)F)c(OC)c2)C(=O)N2C[C@@H](C)C[C@H]2C(=O)NC2(CC(C)(C)C2)C(=O)N(C)[C@@H](C2CCCC2)C(=O)N(C)[C@H](C(=O)N(C)CC)CC(=O)N1C [PP1993] | 13.3 | – | – | A (a compound having 10 or more and less than 20 is denoted as A) | A (a compound having 10 or more and less than 20 is denoted as A) | – | –
CCO[C@@H]1C[C@H]2C(=O)NC3(CCC3)C(=O)N(C)[C@@H](C(CC)CC)C(=O)N(C)[C@H](C(=O)N(C)CCOC)CC(=O)N(C)[C@@H](CC)C(=O)N[C@@H]([C@@H](C)CC)C(=O)N(C)CC(=O)N(C)[C@H]3C/C=C\CCN(C3=O)[C@@H](Cc3ccc(C(F)(F)F)cc3)C(=O)N(C)CC(=O)N[C@@H](CCc3cc(F)c(C(F)(F)F)c(F)c3)C(=O)N2C1 [PP1330] | 79.6 | – | – | – | – | AA (a compound having 20 or more is denoted as AA) | A (a compound having 10 or more and less than 20 is denoted as A)
CCCN1C(=O)[C@@H]2CCN2C(=O)CN(C)C(=O)[C@H]([C@@H](C)CC)NC(=O)[C@H](CC(C)C)N(C)C(=O)C[C@@H](C(=O)N2CCOCC2)NC(=O)[C@H](C2CCCC2)N(C)C(=O)C2(CCCC2)NC(=O)[C@@H]2CCCN2C(=O)[C@H](CCc2ccc(C(F)(F)F)c(Cl)c2)NC(=O)CN(C)C(=O)[C@@H]1Cc1ccc(C(F)(F)F)cc1 [PP0349] ([NMeL]I[Sar][Aze][NPrPhe(4-CF3)][Sar][hPhe(3-Cl-4-CF3)]P[Ac5c][NMeGly(cPent)]D-Morpholide; lactam N-11) | 75.9 | C (A compound having a KD ratio of 0.1 or more and less than 3 is denoted as C) | B (a compound having 3 or more and less than 10 is denoted as B) | – | – | – | –
